Data: patent US5739278A, “Compositions for protein tyrosine phosphatases” (University of Washington, priority 1995, dated 1998)
Where a SMILES comes first, the peptide text is derived from it.

Key:
Experiment in all cases: Phosphatase assay with ENDY(P)INASL as substrate
Type in all cases: biochemical
CD45 = molecular target: T1, CD45 (Homo sapiens, UniProt P08575)
T1 construct: CD45 were purified from placenta and spleen, respectively; from tissue; host or cells: spleen
T1 sequence (P08575 26-1306): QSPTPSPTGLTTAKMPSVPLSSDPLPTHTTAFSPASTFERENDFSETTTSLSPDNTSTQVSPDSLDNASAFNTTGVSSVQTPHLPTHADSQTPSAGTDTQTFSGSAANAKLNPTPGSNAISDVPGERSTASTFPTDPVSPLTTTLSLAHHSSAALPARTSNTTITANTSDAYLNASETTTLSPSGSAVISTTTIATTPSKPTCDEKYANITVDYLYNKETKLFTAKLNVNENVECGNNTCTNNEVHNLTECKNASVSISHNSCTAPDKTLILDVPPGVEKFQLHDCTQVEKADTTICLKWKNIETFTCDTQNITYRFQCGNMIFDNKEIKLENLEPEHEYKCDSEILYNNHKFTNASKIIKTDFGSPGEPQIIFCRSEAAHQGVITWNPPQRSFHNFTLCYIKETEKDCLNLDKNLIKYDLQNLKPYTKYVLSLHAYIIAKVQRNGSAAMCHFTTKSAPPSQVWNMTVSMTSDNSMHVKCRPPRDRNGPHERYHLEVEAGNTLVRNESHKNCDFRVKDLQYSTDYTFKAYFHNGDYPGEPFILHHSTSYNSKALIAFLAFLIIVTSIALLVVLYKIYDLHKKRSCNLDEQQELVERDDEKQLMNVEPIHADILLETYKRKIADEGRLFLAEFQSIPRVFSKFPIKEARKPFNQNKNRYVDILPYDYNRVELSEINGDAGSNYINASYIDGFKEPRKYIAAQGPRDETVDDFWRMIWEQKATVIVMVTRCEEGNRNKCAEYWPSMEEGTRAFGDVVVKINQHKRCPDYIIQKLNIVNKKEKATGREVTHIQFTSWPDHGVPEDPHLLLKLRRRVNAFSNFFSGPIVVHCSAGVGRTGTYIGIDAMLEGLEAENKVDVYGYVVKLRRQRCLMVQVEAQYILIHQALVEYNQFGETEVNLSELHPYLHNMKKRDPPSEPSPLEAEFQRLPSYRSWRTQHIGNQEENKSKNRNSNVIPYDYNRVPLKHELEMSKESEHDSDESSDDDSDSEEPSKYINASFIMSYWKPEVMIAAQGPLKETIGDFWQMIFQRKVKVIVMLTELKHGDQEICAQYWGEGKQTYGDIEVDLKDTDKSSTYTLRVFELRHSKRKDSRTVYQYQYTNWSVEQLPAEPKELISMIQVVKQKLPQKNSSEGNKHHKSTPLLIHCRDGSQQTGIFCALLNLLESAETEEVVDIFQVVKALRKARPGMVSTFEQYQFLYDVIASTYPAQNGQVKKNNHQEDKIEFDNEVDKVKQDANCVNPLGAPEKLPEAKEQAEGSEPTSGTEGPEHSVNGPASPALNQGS
Procedure: (§1) The tyrosine phosphatases TC.PTP, TCΔC11.PTP, and RPTPα were purified from infected Sf9 cells as described recently (Zander et al., Biochemistry 30: 6964-6970, 1991; Daum et al., J. Biol. Chem. 266: 12211-12215, 1991). The 37 kDa form of PTP1B and CD45 were purified from placenta and spleen, respectively (according to Tonks et al., J. Biol. Chem. 263: 6722-6730, 1988; Tonks et al., Biochemistry 27: 8695-8701, 1988).
(§2) Phosphatase assays with ENDY(P)INASL were performed in buffer M6. Aliquots of 30 μl or 60 μl containing the phosphopeptide, the phosphatase (-beads) and effectors were incubated for 10 minutes at 30° C. The reaction was stopped by adding 200 μl of a suspension of 10% activated, acid-washed Norit A charcoal (v/v) in 0.9N HCl, 0.1M pyrophosphate and 2 mM NaH2 PO4 (according to Streuli et al., Proc. Natl. Acad. Sci. USA 86: 8698-8702, 1989). The mixture was cleared by 10-minute centrifugation and the radioactivity of 150 μl of the supernate was determined. Assays with MBP and RCML were performed as described in Tonks et al., J. Biol. Chem. 263: 6722-6730, 1988. Protein concentration was determined with BSA as standard (Bradford, Anal. Biochem. 72: 248-254, 1976).

TC.PTP = molecular target: T2, TC.PTP (Homo sapiens, UniProt P17706); details: TC.PTP
T2 construct: made in house; host or cells: Sf9 cells (baculovirus)
T2 sequence (P17706 1-415): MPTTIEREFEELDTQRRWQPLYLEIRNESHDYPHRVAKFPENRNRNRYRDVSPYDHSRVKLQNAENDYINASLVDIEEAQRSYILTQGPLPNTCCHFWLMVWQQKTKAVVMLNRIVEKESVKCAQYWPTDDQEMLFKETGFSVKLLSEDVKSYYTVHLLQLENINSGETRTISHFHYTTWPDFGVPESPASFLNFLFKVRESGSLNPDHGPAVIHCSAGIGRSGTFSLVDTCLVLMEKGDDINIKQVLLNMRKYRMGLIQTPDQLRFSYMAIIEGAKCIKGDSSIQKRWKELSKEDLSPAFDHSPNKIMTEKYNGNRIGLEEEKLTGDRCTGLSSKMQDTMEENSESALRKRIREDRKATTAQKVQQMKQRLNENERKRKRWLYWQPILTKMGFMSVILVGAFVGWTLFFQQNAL
Procedure: as §1, §2

TCΔC11.PTP = molecular target: T3, TCΔC11.PTP (Homo sapiens, UniProt P17706)
T3 construct: both the wild type and truncated forms of the T-cell phosphatase; made in house; host or cells: Sf9 cells (baculovirus)
T3 sequence (P17706 1-317 limits assumed): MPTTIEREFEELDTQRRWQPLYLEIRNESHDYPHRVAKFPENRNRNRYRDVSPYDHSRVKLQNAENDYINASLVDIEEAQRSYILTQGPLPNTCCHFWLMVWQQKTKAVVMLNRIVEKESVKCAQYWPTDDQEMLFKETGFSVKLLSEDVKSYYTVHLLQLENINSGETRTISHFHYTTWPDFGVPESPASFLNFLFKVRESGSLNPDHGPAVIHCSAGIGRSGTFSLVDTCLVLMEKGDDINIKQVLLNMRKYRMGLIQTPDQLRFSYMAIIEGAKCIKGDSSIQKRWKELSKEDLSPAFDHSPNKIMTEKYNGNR
Procedure: as §1, §2

PTP1B = molecular target: T4, PTP1B (Homo sapiens, UniProt P18031)
T4 construct: The 37 kDa form of PTP1B; from tissue; host or cells: placenta
T4 sequence (P18031 1-321 limits assumed): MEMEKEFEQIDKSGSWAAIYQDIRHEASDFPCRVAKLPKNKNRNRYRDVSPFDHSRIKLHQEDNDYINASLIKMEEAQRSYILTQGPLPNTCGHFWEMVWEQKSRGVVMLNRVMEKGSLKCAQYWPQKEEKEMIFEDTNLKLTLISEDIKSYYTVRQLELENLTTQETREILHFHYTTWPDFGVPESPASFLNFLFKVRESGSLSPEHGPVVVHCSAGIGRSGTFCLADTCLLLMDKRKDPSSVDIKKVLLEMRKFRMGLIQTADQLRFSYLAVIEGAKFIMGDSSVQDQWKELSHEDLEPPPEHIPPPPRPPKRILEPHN
Procedure: as §1, §2

RPTPα = molecular target: T5, RPTPα (Homo sapiens, UniProt P18433)
T5 construct: made in house; host or cells: Sf9 cells (baculovirus)
T5 sequence (P18433 20-802): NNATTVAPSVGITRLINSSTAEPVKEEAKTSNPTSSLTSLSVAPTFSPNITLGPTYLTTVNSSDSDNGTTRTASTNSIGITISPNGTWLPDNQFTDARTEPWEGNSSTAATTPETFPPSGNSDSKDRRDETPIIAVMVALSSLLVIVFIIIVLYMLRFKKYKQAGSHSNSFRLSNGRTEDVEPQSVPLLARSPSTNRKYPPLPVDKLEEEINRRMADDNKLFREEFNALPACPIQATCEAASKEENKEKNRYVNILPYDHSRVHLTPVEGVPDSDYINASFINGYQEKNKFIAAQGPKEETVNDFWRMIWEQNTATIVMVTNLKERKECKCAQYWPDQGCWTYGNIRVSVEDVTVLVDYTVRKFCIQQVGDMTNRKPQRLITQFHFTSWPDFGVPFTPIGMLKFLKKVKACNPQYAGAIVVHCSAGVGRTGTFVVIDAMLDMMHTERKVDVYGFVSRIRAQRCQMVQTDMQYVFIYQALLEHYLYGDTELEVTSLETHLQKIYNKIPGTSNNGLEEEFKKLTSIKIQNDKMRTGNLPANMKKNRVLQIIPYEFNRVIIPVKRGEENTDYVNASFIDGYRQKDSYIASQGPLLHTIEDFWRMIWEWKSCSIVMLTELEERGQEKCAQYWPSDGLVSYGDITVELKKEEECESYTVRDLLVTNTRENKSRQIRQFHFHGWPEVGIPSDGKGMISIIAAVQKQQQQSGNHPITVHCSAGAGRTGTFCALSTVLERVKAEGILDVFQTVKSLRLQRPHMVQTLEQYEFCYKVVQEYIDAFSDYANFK
Procedure: as §1, §2

Phosphatase activity in percent of the value obtained in the absence of effectors (CD45; effector 1.0 mM) [%]	Phosphatase activity in percent of the value obtained in the absence of effectors (CD45; effector 3.0 mM) [%]	Phosphatase activity in percent of the value obtained in the absence of effectors (CD45; effector 5.0 mM) [%]	Phosphatase activity in percent of the value obtained in the absence of effectors (TC.PTP; effector 1.0 mM) [%]	Phosphatase activity in percent of the value obtained in the absence of effectors (TC.PTP; effector 3.0 mM) [%]	Phosphatase activity in percent of the value obtained in the absence of effectors (TC.PTP; effector 5.0 mM) [%]	Phosphatase activity in percent of the value obtained in the absence of effectors (TCΔC11.PTP; effector 1.0 mM) [%]	Phosphatase activity in percent of the value obtained in the absence of effectors (TCΔC11.PTP; effector 3.0 mM) [%]	Phosphatase activity in percent of the value obtained in the absence of effectors (TCΔC11.PTP; effector 5.0 mM) [%]	Phosphatase activity in percent of the value obtained in the absence of effectors (PTP1B; effector 1.0 mM) [%]	Phosphatase activity in percent of the value obtained in the absence of effectors (PTP1B; effector 3.0 mM) [%]	Phosphatase activity in percent of the value obtained in the absence of effectors (PTP1B; effector 5.0 mM) [%]	Phosphatase activity in percent of the value obtained in the absence of effectors (RPTPα; effector 1.0 mM) [%]	Phosphatase activity in percent of the value obtained in the absence of effectors (RPTPα; effector 3.0 mM) [%]	Phosphatase activity in percent of the value obtained in the absence of effectors (RPTPα; effector 5.0 mM) [%]	Compound	Phosphatase activity in percent of the value obtained in the absence of effectors (CD45; effector 1.0 μM) [%]	Phosphatase activity in percent of the value obtained in the absence of effectors (RPTPα; effector 1.0 μM) [%]	further results
															heparin	0	19	Phosphatase activity in percent of the value obtained in the absence of effectors (CD45; effector 0.01 μM): 8%; Phosphatase activity in percent of the value obtained in the absence of effectors (CD45; effector 0.1 μM): 0%; Phosphatase activity in percent of the value obtained in the absence of effectors (TC.PTP; effector 0.01 μM): 8%; Phosphatase activity in percent of the value obtained in the absence of effectors (TC.PTP; effector 0.1 μM): 1%; Phosphatase activity in percent of the value obtained in the absence of effectors (TC.PTP; effector 1.0 μM): 0%; Phosphatase activity in percent of the value obtained in the absence of effectors (TCΔC11.PTP; effector 0.01 μM): 88%; Phosphatase activity in percent of the value obtained in the absence of effectors (TCΔC11.PTP; effector 0.1 μM): 4%; Phosphatase activity in percent of the value obtained in the absence of effectors (TCΔC11.PTP; effector 1.0 μM): 0%; Phosphatase activity in percent of the value obtained in the absence of effectors (PTP1B; effector 0.01 μM): 91%; Phosphatase activity in percent of the value obtained in the absence of effectors (PTP1B; effector 0.1 μM): 0%; Phosphatase activity in percent of the value obtained in the absence of effectors (PTP1B; effector 1.0 μM): 0%; Phosphatase activity in percent of the value obtained in the absence of effectors (RPTPα; effector 0.01 μM): 82%; Phosphatase activity in percent of the value obtained in the absence of effectors (RPTPα; effector 0.1 μM): 40%
78	56	44	49	30	21	34	22	15	26	23	20	60	38	21	[Mn+2] [Mn^2+]			
80	62	72	72	57	60	75	60	58	81	73	71	90	72	59	[Mg+2] [Mg^2+]			
															CC[C@H](C)[C@H](NC(=O)[C@H](Cc1ccc(O)cc1)NC(=O)[C@H](CC(=O)O)NC(=O)[C@H](CC(N)=O)NC(=O)[C@@H](N)CCC(=O)O)C(=O)N[C@@H](CC(N)=O)C(=O)N[C@@H](C)C(=O)N[C@@H](CO)C(=O)N[C@@H](CC(C)C)C(=O)O (H-ENDYINASL-OH)			Phosphatase activity in percent of the value obtained in the absence of effectors (CD45; effector 60 μM): 99%; Phosphatase activity in percent of the value obtained in the absence of effectors (CD45; effector 110 μM): 92%; Phosphatase activity in percent of the value obtained in the absence of effectors (CD45; effector 210 μM): 83%; Phosphatase activity in percent of the value obtained in the absence of effectors (TC.PTP; effector 60 μM): 92%; Phosphatase activity in percent of the value obtained in the absence of effectors (TC.PTP; effector 110 μM): 89%; Phosphatase activity in percent of the value obtained in the absence of effectors (TC.PTP; effector 210 μM): 79%; Phosphatase activity in percent of the value obtained in the absence of effectors (TCΔC11.PTP; effector 60 μM): 71%; Phosphatase activity in percent of the value obtained in the absence of effectors (TCΔC11.PTP; effector 110 μM): 55%; Phosphatase activity in percent of the value obtained in the absence of effectors (TCΔC11.PTP; effector 210 μM): 46%; Phosphatase activity in percent of the value obtained in the absence of effectors (PTP1B; effector 60 μM): 94%; Phosphatase activity in percent of the value obtained in the absence of effectors (PTP1B; effector 110 μM): 84%; Phosphatase activity in percent of the value obtained in the absence of effectors (PTP1B; effector 210 μM): 58%; Phosphatase activity in percent of the value obtained in the absence of effectors (RPTPα; effector 60 μM): 76%; Phosphatase activity in percent of the value obtained in the absence of effectors (RPTPα; effector 110 μM): 54%; Phosphatase activity in percent of the value obtained in the absence of effectors (RPTPα; effector 210 μM): 30%
															[O]=[V]([O-])([O-])[O-] [vanadate]	66	62	Phosphatase activity in percent of the value obtained in the absence of effectors (CD45; effector 10 μM): 17%; Phosphatase activity in percent of the value obtained in the absence of effectors (CD45; effector 100 μM): 4%; Phosphatase activity in percent of the value obtained in the absence of effectors (RPTPα; effector 10 μM): 4%; Phosphatase activity in percent of the value obtained in the absence of effectors (RPTPα; effector 100 μM): 0%
